From ChEMBL document CHEMBL1201862, “PubChem BioAssay data set” (2004)
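Cultured in 96-well plates, cells were exposed to test compound for 48 hours across five concentrations. Here, GI50 denotes the concentration required for 50% inhibition of growth.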 The source made the active and inactive calls. Cut-off read from the data, not from the text of the source: active = GI50 up to about 1.1 µM and inactive = higher.

How the values were obtained:
Assay in all cases: NCI tumour cell line growth inhibition, 48 h
[1] = tested on: 786-0
[2] = tested on: A498
[3] = tested on: A549
[4] = tested on: ACHN
[5] = tested on: CAKI-1
[6] = tested on: CCRF-CEM
[7] = tested on: COLO 205
[8] = tested on: DLD-1
[9] = tested on: DMS-273
[10] = tested on: EKVX
[11] = tested on: HCC 2998
[12] = tested on: HCT-116
[13] = tested on: HCT-15
[14] = tested on: HL-60
[15] = tested on: HOP-62
[16] = tested on: HOP-92
[17] = tested on: HT-29
[18] = tested on: IGROV-1
[19] = tested on: K562
[20] = tested on: KM-20L2
[21] = tested on: LOX IMVI
[22] = tested on: LXFL 529
[23] = tested on: M14
[24] = tested on: M19-MEL
[25] = tested on: MOLT-4
[26] = tested on: Malme-3M
[27] = tested on: NCI-H226
[28] = tested on: NCI-H23
[29] = tested on: NCI-H460
[30] = tested on: NCI-H522
[31] = tested on: OVCAR-3
[32] = tested on: OVCAR-4
[33] = tested on: OVCAR-8
[34] = tested on: RXF 393
[35] = tested on: SF-268
[36] = tested on: SF-295
[37] = tested on: SF-539
[38] = tested on: SK-MEL-28
[39] = tested on: SK-MEL-5
[40] = tested on: SK-OV-3
[41] = tested on: SN12C
[42] = tested on: SNB-19
[43] = tested on: SNB-75
[44] = tested on: SNB-78
[45] = tested on: SR
[46] = tested on: SW-620
[47] = tested on: TK-10
[48] = tested on: U-251
[49] = tested on: UACC-257
[50] = tested on: UACC-62
[51] = tested on: UO-31
[52] = tested on: XF498
[53] = tested on: DMS-114
[54] = tested on: KM12
[55] = tested on: OVCAR-5
[56] = tested on: RPMI-8226
[57] = tested on: SK-MEL-2

SMILES: Cc1cc(O)nc(CNC(=O)c2cccc3ccccc23)n1
- GI50 [1]: > 100 µM (inactive)
- GI50 [2]: > 100 µM (inactive)
- GI50 [3]: > 100 µM (inactive)
- GI50 [4]: > 100 µM (inactive)
- GI50 [5]: > 100 µM (inactive)
- GI50 [6]: > 100 µM (inactive)
- GI50 [7]: > 100 µM (inactive)
- GI50 [8]: > 100 µM (inactive)
- GI50 [9]: > 100 µM (inactive)
- GI50 [10]: > 100 µM (inactive)
- GI50 [11]: > 100 µM (inactive)
- GI50 [12]: > 100 µM (inactive)
- GI50 [13]: > 100 µM
- GI50 [14]: > 100 µM (inactive)
- GI50 [15]: > 100 µM (inactive)
- GI50 [16]: > 100 µM (inactive)
- GI50 [17]: > 100 µM (inactive)
- GI50 [18]: > 100 µM (inactive)
- GI50 [19]: > 100 µM (inactive)
- GI50 [20]: > 100 µM (inactive)
- GI50 [21]: > 100 µM (inactive)
- GI50 [22]: > 100 µM (inactive)
- GI50 [23]: > 100 µM (inactive)
- GI50 [24]: > 100 µM (inactive)
- GI50 [25]: > 100 µM (inactive)
- GI50 [26]: > 100 µM (inactive)
- GI50 [27]: > 100 µM (inactive)
- GI50 [28]: > 100 µM (inactive)
- GI50 [29]: > 100 µM (inactive)
- GI50 [30]: > 100 µM (inactive)
- GI50 [31]: > 100 µM (inactive)
- GI50 [32]: > 100 µM (inactive)
- GI50 [33]: > 100 µM (inactive)
- GI50 [34]: > 100 µM (inactive)
- GI50 [35]: > 100 µM (inactive)
- GI50 [36]: > 100 µM (inactive)
- GI50 [37]: > 100 µM (inactive)
- GI50 [38]: > 100 µM (inactive)
- GI50 [39]: > 100 µM (inactive)
- GI50 [40]: > 100 µM (inactive)
- GI50 [41]: > 100 µM (inactive)
- GI50 [42]: > 100 µM (inactive)
- GI50 [43]: > 100 µM (inactive)
- GI50 [44]: > 100 µM (inactive)
- GI50 [45]: > 100 µM (inactive)
- GI50 [46]: > 100 µM (inactive)
- GI50 [47]: > 100 µM (inactive)
- GI50 [48]: > 100 µM (inactive)
- GI50 [49]: > 100 µM (inactive)
- GI50 [50]: > 100 µM (inactive)
- GI50 [51]: > 100 µM (inactive)
- GI50 [52]: > 100 µM (inactive)

SMILES: Cc1ccc(N2C[N+](c3ccccc3)=NC(c3ccccc3)=N2)cc1
- GI50 [1]: 68.9 µM (inactive)
- GI50 [2]: 71.9 µM (inactive)
- GI50 [3]: 66.8 µM (inactive)
- GI50 [4]: 32.7 µM (inactive)
- GI50 [6]: 19.6 µM (inactive)
- GI50 [7]: 31.8 µM (inactive)
- GI50 [8]: 54.6 µM (inactive)
- GI50 [53]: 24.4 µM (inactive)
- GI50 [9]: 30.3 µM (inactive)
- GI50 [10]: 32.4 µM (inactive)
- GI50 [11]: 48.3 µM (inactive)
- GI50 [12]: 35.4 µM (inactive)
- GI50 [13]: 48.1 µM
- GI50 [14]: 33.6 µM (inactive)
- GI50 [15]: > 100 µM (inactive)
- GI50 [17]: 39.3 µM (inactive)
- GI50 [18]: 48.4 µM (inactive)
- GI50 [19]: 23.2 µM (inactive)
- GI50 [20]: 56.9 µM (inactive)
- GI50 [54]: 67.6 µM (inactive)
- GI50 [21]: 32.4 µM (inactive)
- GI50 [22]: 24.8 µM (inactive)
- GI50 [24]: 28.9 µM (inactive)
- GI50 [25]: 21.3 µM (inactive)
- GI50 [26]: 43.6 µM (inactive)
- GI50 [27]: 60.8 µM (inactive)
- GI50 [28]: 38.9 µM (inactive)
- GI50 [29]: 54.1 µM (inactive)
- GI50 [30]: > 10 µM (inactive)
- GI50 [31]: 29.4 µM (inactive)
- GI50 [32]: 40.1 µM (inactive)
- GI50 [55]: > 100 µM (inactive)
- GI50 [33]: 48.1 µM (inactive)
- GI50 [56]: 33 µM (inactive)
- GI50 [34]: 80.2 µM (inactive)
- GI50 [35]: > 100 µM (inactive)
- GI50 [36]: 61.7 µM (inactive)
- GI50 [38]: 55.7 µM (inactive)
- GI50 [39]: 23.9 µM (inactive)
- GI50 [41]: 62.2 µM (inactive)
- GI50 [42]: 39.2 µM (inactive)
- GI50 [44]: > 10 µM (inactive)
- GI50 [45]: 36.4 µM (inactive)
- GI50 [46]: 51.8 µM (inactive)
- GI50 [47]: > 100 µM (inactive)
- GI50 [48]: 44.6 µM (inactive)
- GI50 [49]: 53.2 µM (inactive)
- GI50 [51]: 35.9 µM (inactive)
- GI50 [52]: 43.8 µM (inactive)

SMILES: CSc1nc2nc(C(O)C(O)C(O)CO)cnc2c(=O)[nH]1 (stereo not given)
- GI50 [1]: > 100 µM (inactive)
- GI50 [2]: > 100 µM (inactive)
- GI50 [3]: > 100 µM (inactive)
- GI50 [4]: > 100 µM (inactive)
- GI50 [5]: > 100 µM (inactive)
- GI50 [6]: > 100 µM (inactive)
- GI50 [7]: > 100 µM (inactive)
- GI50 [8]: > 100 µM (inactive)
- GI50 [53]: > 100 µM (inactive)
- GI50 [9]: > 100 µM (inactive)
- GI50 [10]: > 100 µM (inactive)
- GI50 [11]: > 100 µM (inactive)
- GI50 [12]: > 100 µM (inactive)
- GI50 [13]: > 100 µM
- GI50 [14]: > 100 µM (inactive)
- GI50 [15]: > 100 µM (inactive)
- GI50 [17]: > 100 µM (inactive)
- GI50 [18]: > 100 µM (inactive)
- GI50 [19]: > 10 µM (inactive)
- GI50 [20]: > 100 µM (inactive)
- GI50 [54]: > 100 µM (inactive)
- GI50 [21]: > 100 µM (inactive)
- GI50 [22]: > 100 µM (inactive)
- GI50 [23]: > 100 µM (inactive)
- GI50 [24]: > 100 µM (inactive)
- GI50 [25]: > 100 µM (inactive)
- GI50 [26]: > 100 µM (inactive)
- GI50 [27]: > 100 µM (inactive)
- GI50 [28]: > 100 µM (inactive)
- GI50 [29]: > 100 µM (inactive)
- GI50 [30]: > 100 µM (inactive)
- GI50 [31]: 34 µM (inactive)
- GI50 [55]: > 100 µM (inactive)
- GI50 [33]: > 100 µM (inactive)
- GI50 [56]: > 100 µM (inactive)
- GI50 [34]: > 100 µM (inactive)
- GI50 [35]: > 100 µM (inactive)
- GI50 [36]: > 100 µM (inactive)
- GI50 [37]: > 100 µM (inactive)
- GI50 [38]: > 100 µM (inactive)
- GI50 [57]: > 100 µM (inactive)
- GI50 [39]: > 100 µM (inactive)
- GI50 [40]: > 100 µM (inactive)
- GI50 [41]: > 100 µM (inactive)
- GI50 [42]: > 100 µM (inactive)
- GI50 [43]: > 100 µM (inactive)
- GI50 [44]: > 100 µM (inactive)
- GI50 [46]: > 100 µM (inactive)
- GI50 [47]: > 100 µM (inactive)
- GI50 [48]: > 100 µM (inactive)
- GI50 [49]: > 100 µM (inactive)
- GI50 [50]: > 100 µM (inactive)
- GI50 [51]: > 100 µM (inactive)
- GI50 [52]: > 100 µM (inactive)
